Results on twelve compounds are retold here after US9266908B2, “Inhibitors of arginase and their therapeutic applications” (MARS, INCORPORATED, priority 2011, dated 2016).

For experiment [1], the system named is experimental autoimmune encephalomyelitis (EAE). Particulars: animals undergoing EAE; cited from earlier work.
A further experiment deals with T1, human-Arginase-1 (Homo sapiens, UniProt P05089).
T1 construct: expressed in transfected cells; host or cells: CHOK cells
T1 sequence (P05089 1-322): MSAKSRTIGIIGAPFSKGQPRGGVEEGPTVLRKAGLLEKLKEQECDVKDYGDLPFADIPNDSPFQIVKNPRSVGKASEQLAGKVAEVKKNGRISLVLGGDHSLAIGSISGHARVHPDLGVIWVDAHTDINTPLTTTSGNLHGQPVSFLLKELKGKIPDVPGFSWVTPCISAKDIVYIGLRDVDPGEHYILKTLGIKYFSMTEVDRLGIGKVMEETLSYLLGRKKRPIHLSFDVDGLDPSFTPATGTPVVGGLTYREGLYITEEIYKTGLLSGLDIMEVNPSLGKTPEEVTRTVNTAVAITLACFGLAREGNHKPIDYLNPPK
The experiment in a line: Urea production in CHOK cells stably transfected with human-Arginase-1. The experiment is classed as cell-based. Conditions: IC50 class, 5 mM arginine, 24 hours, read-out: CHOK Cell. On the procedure:
Table 3 also provides CHOK cell based IC50 values for illustrative arginase inhibitors. IC50 values were determined by measuring the production of urea in CHOK cells stably transfected with human-Arginase-1.
Briefly, CHOK cells were stably transfected with human-arginase-1. To determiner the IC50 values for compounds in accordance with the present invention, parental CHOK cells and arginase-1 stably transfected cells were plated in a 96 well plate. Cells were plated using 200 μl of complete growth medium and incubated overnight at 37° C.
Media from each of the wells containing cells was first removed and growth media supplemented with arginine at a concentration of 5 mM was added to each well. The test compounds were dissolved in PBS buffer to the desired concentration and added to appropriate wells. The plate was then incubated at 37° C. for 24 hours. After 24 hours the plates were spun down at 3000 RPM for 5 min and 50 μl of the media were transferred to a new plate.
An aqueous solution of o-phthaldehyde, Brij, sulfuric acid, primaquine diphosphate and boric acid was added to each well and the plate was incubated for 10-15 minutes. The urea concentration in each well was determined by measuring the optical density at 520-530 nanometers using a standard curve. The IC50 values were calculated by measuring urea production at various concentrations of the inventive arginase inhibitors after subtracting the value related to the concentration of urea in control wells.

Another experiment concerns the target T2, human arginase I (ARG I) (Homo sapiens, UniProt P05089).
T2 sequence (P05089 1-322): T1 sequence (P05089 1-322)
Put plainly: Inhibition of arginase I, spectrophotometric urea assay at 530 nm.

A further experiment addresses T3, arginase II (ARG II) (Homo sapiens, UniProt P78540).
T3 sequence (P78540 23-354): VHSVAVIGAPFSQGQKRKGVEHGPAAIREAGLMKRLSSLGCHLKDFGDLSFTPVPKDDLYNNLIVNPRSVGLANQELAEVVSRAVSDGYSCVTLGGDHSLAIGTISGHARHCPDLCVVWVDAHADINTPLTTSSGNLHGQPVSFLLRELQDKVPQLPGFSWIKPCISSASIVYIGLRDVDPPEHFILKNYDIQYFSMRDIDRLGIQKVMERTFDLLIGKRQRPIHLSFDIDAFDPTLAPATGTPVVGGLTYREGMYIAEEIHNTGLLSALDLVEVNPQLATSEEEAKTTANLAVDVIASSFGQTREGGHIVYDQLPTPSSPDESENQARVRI
Put plainly: Inhibition of arginase II, spectrophotometric urea assay at 530 nm.

The next experiment relates to bacterial arginase. Conditions: cited from earlier work.
In another experiment the test system is murine chronic model. Conditions: cited from earlier work.
Experiment [2] has as its system spontaneously hypertensive animals. Particulars: cited from earlier work.

Method for human arginase I (ARG I): Inhibition of arginase I (ARG I) and arginase II (ARG II) by the inventive compounds is followed spectrophotometrically at 530 nm. […] Solutions of arginase I and II are prepared in 100 mM sodium phosphate buffer, pH 7.4 containing 1 mg/ml of OVA to give an arginase stock solution at a final concentration of 100 ng/ml.
To each well of a 96-well microtiter plate is add 40 μl of enzyme, 10 μl of an inventive compound and 10 μl of enzyme substrate (L-arginine+ manganese sulfate). For wells that are used as positive controls, only the enzyme and its substrate are added, while wells used as negative controls contain only manganese sulfate.
After incubating the microtiter plate at 37° C. for 60 minutes, 150 μl of a urea reagent obtained by combining equal proportions (1:1) of reagents A and B is added to each well of the microtiter plate to stop the reaction. The urea reagent is made just before use by combining Reagent A (10 mM o-phthaldialdehyde, and 0.4% polyoxyethylene (23) lauryl ether (w/v) in 1.8 M sulfuric acid) with Reagent B (1.3 mM primaquine diphosphate, 0.4% polyoxyethylene (23) lauryl ether (w/v), 130 mM boric acid in 3.6 M sulfuric acid). After quenching the reaction mixture, the microtiter plate is allowed to stand for an additional 10 minutes at room temperature to allow color development. […] The normalized OD is then used to generate a dose-response curve by plotting the normalized OD values against log [concentration] and using regression analysis to compute the IC50 values.

On to `NC(CCCCB(O)O)C(=O)O` (stereo not drawn) [ABH, amino-6-boronohexanoic acid], for which the “form of EAE developed versus control animals” value in experiment [1] is given as “much milder form of EAE”.

For `NC(CCCCB(O)O)(C(=O)O)[C@H]1C[C@@H](NCc2ccc(-c3ccc(Cl)cc3)cc2F)C1` (stereo partly drawn) [Example 49, (S)-2-amino-6-borono-2-((1s,3R)-3-((4′-chloro-3-fluorobiphenyl-4-yl)methylamino)cyclobutyl)hexanoic acid], the figures for the IC50 on human-Arginase-1, against human arginase I (ARG I) and against arginase II (ARG II) were 1000 to 25000 nM, 0.1 to 25 nM and 0.1 to 25 nM, respectively.

Consider `NC(CCCCB(O)O)(C(=O)O)[C@H]1C[C@@H](NCCCc2ccc(C(F)(F)F)cc2)C1` (stereo partly drawn) [Example 56, (S)-2-amino-6-borono-2-((1s,3R)-3-(3-(4-(trifluoromethyl)phenyl)propylamino)cyclobutyl)hexanoic acid], for which the IC50 was in the range of 26000 to 100000 nM at human-Arginase-1, 0.1 to 25 nM at human arginase I (ARG I) and 26 to 100 nM at arginase II (ARG II).

`NC(CCCCB(O)O)(C(=O)O)C1CC2CCC(C1)N2` (stereo not drawn) [Example 61, 2-amino-2-(8-azabicyclo[3.2.1]octan-3-yl)-6-boronohexanoic acid]: the IC50 at human-Arginase-1 was 1000 to 25000 nM; at human arginase I (ARG I), 26 to 100 nM; on arginase II (ARG II), 26 to 100 nM.

`NC(CCCCB(O)O)(C(=O)O)C1CC2CCC(C1)N2Cc1ccccc1` (stereo not drawn) [Example 62, 2-amino-2-(8-benzyl-8-azabicyclo[3.2.1]octan-3-yl)-6-boronohexanoic acid]: the IC50 at human-Arginase-1 was in the range of 1000 to 25000 nM; against human arginase I (ARG I), 0.1 to 25 nM; against arginase II (ARG II), 26 to 100 nM.

With `NC(CCCCB(O)O)(C(=O)O)C1CC2CCC(C1)N2Cc1ccc(F)c(F)c1` (stereo not drawn) [Example 63, 2-amino-6-borono-2-(8-(3,4-difluorobenzyl)-8-azabicyclo[3.2.1]octan-3-yl)hexanoic acid], the IC50 fell in the range of 1000 to 25000 nM on human-Arginase-1, 0.1 to 25 nM against human arginase I (ARG I) and 26 to 100 nM against arginase II (ARG II).

As for `NC(CCCCB(O)O)(C(=O)O)C1CC2CCC(C1)N2Cc1ccc(OC(F)(F)F)cc1` (stereo not drawn) [Example 64, 2-amino-6-borono-2-(8-(4-(trifluoromethoxy)benzyl)-8-azabicyclo[3.2.1]octan-3-yl)hexanoic acid], the IC50 is 26000 to 100000 nM at human-Arginase-1, 26 to 100 nM on human arginase I (ARG I) and 26 to 100 nM on arginase II (ARG II).

In the case of `CCN(CCO)CC[C@](N)(CCCCB(O)O)C(=O)O` [Example 67, (R)-2-amino-6-borono-2-(2-(ethyl(2-hydroxyethyl)amino)ethyl)hexanoic acid], the IC50 on human-Arginase-1 is 1000 to 25000 nM; on human arginase I (ARG I) it was 501 to 1500 nM; at arginase II (ARG II), 101 to 500 nM.

For `CCN(CC)CC[C@](N)(CCCCB(O)O)C(=O)O` [Example 68, (R)-2-amino-6-borono-2-(2-(diethylamino)ethyl)hexanoic acid], the results for the IC50 at human-Arginase-1, at human arginase I (ARG I) and against arginase II (ARG II) were 1000 to 25000 nM, 101 to 500 nM and 101 to 500 nM, respectively.

As for `NC(=NCCC[C@H](N)C(=O)O)NO` [NOHA], in the experiment on bacterial arginase, the “CD3 expression on T-cells” value is reported as “reestablished” and the “production of NO by macrophages” value was “enhanced”.

With `N[C@@H](CSCCB(O)O)C(=O)O` [S-(2-boronoethyl)-L-cysteine], the “methacholine induced responsiveness of the central airways” value in the experiment with murine chronic model is “attenuated”.

On to `N=C(NO)NCC[C@H](N)C(=O)O` [nor-NOHA, N^ω-hydroxy-nor-L-arginine], for which, in experiment [2], the blood pressure entry is recorded as “lowered”; the “vascular response of resistance vessels to blood flow and pressure” value is reported as “improved”.
